Measurements: ChEMBL document CHEMBL1201862, “PubChem BioAssay data set” (2004)
Active and inactive are the calls of the source.

Columns and labels:
[1] = tested on: H9c2; assay: cells; type: functional, cell-based; settings: Rattus norvegicus, H9c2, Myocardium;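 note: confirmatory concentration-response retest of ultra-high-throughput screening hits for modulation of myocardial damage; cell death induced by hydrogen peroxide oxidative stress; compound pretreatment for 60 min then peroxide exposure for 2 h; potency is for protecting the cells against peroxide damage rather than for killing them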
[2] = target: Mothers against decapentaplegic homolog 3 (Homo sapiens, UniProt P84022); assay: SMAD3 transcription factor inhibitors, dose response (AID 715); type: functional
Sequence of Mothers against decapentaplegic homolog 3 (P84022 whole entry): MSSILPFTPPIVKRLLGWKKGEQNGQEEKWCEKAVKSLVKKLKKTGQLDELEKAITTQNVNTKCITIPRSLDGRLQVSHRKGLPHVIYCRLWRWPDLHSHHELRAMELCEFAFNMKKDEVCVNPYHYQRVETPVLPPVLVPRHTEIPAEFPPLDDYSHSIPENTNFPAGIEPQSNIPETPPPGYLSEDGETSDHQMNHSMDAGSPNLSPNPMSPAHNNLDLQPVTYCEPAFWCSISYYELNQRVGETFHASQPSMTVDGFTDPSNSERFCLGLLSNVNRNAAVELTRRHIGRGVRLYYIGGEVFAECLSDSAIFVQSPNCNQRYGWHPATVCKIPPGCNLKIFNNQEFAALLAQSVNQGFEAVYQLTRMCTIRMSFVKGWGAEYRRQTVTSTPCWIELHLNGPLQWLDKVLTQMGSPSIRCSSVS

[3] = target: Peroxisome proliferator-activated receptor gamma/Nuclear receptor coactivator 1 (Homo sapiens, UniProt P37231); assay: (§1) TR-FRET dose response biochemical High Throughput Screening assay for agonists of the steroid receptor coactivator 1 (SRC-1) recruitment by the peroxisome proliferator-activated receptor gamma (PPAR gamma): non-selective agonists. [Related pubchem assays (depositor defined):AID1300, AID1808, AID504735, AID631]; type: protein assay
Sequence of Peroxisome proliferator-activated receptor gamma/Nuclear receptor coactivator 1 (P37231 whole entry): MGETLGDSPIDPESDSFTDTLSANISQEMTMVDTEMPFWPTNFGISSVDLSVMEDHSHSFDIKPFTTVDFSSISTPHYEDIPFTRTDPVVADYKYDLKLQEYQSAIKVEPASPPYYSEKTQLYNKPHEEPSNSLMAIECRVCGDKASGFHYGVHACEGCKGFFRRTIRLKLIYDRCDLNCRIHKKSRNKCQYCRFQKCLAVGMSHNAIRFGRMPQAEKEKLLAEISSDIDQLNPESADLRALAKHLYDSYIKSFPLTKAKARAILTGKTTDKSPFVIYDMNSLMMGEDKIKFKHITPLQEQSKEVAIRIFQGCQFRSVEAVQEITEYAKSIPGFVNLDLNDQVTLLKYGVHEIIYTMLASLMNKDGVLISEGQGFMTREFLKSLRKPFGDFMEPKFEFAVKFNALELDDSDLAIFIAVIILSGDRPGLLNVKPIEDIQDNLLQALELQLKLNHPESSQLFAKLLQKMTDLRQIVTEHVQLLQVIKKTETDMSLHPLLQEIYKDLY
Sequence of Peroxisome proliferator-activated receptor gamma/Nuclear receptor coactivator 1 (Q15788 whole entry, further chain): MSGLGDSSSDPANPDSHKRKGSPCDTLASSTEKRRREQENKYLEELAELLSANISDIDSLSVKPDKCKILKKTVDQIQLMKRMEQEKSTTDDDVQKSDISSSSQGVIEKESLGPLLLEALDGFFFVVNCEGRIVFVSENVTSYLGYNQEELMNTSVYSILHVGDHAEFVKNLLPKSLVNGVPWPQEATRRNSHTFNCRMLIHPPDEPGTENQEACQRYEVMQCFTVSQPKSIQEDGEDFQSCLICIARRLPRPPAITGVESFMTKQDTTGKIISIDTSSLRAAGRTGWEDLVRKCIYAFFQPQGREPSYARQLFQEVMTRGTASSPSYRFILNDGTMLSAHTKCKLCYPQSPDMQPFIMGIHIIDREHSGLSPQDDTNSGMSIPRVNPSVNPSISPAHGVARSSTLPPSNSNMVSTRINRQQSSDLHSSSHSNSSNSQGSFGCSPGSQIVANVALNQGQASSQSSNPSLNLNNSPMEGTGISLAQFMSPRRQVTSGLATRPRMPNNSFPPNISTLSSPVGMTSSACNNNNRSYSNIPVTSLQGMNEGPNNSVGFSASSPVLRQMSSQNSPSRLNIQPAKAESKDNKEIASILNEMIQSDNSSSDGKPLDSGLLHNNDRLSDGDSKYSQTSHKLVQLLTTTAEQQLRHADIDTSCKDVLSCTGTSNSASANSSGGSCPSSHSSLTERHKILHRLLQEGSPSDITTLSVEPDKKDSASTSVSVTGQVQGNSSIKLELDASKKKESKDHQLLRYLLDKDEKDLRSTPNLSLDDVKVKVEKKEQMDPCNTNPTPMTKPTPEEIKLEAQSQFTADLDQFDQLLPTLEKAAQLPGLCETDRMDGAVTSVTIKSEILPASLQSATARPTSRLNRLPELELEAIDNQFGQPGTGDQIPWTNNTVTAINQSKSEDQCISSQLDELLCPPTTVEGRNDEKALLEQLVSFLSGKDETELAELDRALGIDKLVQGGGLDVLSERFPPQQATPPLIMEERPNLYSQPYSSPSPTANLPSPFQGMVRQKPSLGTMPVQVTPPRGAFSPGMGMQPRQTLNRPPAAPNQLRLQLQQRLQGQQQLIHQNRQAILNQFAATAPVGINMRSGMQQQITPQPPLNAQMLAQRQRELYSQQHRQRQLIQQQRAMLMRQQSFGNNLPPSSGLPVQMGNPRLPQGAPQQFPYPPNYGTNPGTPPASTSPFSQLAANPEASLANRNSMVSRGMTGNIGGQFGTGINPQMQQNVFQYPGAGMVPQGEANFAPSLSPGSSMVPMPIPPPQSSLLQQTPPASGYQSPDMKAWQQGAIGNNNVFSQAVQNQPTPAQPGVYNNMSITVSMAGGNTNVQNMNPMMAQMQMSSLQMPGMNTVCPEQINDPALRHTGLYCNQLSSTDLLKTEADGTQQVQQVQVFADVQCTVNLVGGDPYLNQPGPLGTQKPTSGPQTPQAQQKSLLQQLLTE

[4] = target: Peroxisome proliferator-activated receptor gamma/Nuclear receptor coactivator 3 (Homo sapiens, UniProt P37231); assay: as §1, with “3 (SRC-3)” for “1 (SRC-1)”, “assays: 1301 (Confirmation screen.), 1048 (Primary screen.)]” for “assays (depositor defined):AID1300, AID1808, AID504735, AID631]”; type: functional
[5] = target: Peroxisome proliferator-activated receptor gamma/Nuclear receptor coactivator 2 (Homo sapiens, UniProt P37231); assay: TR-FRET dose response biochemical High Throughput Screening assay for agonists of the steroid receptor coactivator 2 (SRC-2) recruitment by the peroxisome proliferator-activated receptor gamma (PPAR gamma): non-selective agonists. [Related pubchem assays: 1297, 1032 ]; type: functional
Sequence of Peroxisome proliferator-activated receptor gamma/Nuclear receptor coactivator 2 (P37231 whole entry): as the sequence (P37231 whole entry) above
Sequence of Peroxisome proliferator-activated receptor gamma/Nuclear receptor coactivator 2 (Q15596 whole entry, further chain): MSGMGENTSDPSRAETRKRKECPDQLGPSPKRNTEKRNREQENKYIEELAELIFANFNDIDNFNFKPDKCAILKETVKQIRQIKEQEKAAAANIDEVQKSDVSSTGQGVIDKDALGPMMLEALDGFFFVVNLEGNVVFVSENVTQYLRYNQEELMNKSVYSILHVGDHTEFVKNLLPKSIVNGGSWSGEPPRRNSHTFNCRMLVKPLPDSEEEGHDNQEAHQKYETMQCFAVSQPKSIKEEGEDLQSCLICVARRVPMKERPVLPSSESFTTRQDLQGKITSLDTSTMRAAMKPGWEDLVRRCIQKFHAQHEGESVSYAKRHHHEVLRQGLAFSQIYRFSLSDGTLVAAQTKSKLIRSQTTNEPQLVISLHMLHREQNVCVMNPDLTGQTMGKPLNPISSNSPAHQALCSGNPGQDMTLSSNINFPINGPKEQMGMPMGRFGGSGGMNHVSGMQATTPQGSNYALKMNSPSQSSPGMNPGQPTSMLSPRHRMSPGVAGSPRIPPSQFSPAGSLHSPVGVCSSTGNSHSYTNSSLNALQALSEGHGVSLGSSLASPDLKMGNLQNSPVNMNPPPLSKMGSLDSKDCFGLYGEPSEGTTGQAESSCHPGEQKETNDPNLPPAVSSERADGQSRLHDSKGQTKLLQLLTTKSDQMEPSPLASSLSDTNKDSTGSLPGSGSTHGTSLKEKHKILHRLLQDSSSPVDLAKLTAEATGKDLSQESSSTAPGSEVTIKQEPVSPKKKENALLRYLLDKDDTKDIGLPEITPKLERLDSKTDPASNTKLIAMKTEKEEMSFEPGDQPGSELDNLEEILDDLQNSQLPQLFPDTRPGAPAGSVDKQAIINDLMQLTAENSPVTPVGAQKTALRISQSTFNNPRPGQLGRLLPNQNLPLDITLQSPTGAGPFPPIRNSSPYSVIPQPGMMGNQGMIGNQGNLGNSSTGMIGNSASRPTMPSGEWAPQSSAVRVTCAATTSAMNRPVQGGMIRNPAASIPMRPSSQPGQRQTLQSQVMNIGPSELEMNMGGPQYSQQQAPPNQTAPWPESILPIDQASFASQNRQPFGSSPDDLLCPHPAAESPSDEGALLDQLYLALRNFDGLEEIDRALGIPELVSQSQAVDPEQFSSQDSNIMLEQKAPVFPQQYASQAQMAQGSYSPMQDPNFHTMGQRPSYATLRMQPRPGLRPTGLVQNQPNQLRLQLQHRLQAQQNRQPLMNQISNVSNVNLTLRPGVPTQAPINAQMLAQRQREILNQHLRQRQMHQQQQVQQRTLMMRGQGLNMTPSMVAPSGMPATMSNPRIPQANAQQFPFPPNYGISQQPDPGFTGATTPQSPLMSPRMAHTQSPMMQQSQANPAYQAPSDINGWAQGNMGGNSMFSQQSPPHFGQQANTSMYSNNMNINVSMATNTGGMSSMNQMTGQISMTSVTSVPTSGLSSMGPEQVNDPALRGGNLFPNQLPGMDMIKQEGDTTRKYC

[6] = target: T1, Heat shock factor protein 1 (Mus musculus, UniProt P38532); assay: HSF1 potentiators in luciferase reporter cells, confirmation, cell-based, NIH3T3, luminescence, dose retest (AID 435004); type: functional;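 note: stress induced by proteasome inhibitor MG132 added 30 min after compound; luciferase reporter driven by HSF1 response element in NIH3T3 cells; actives raise luminescence as potentiators of the MG132 stress response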
T1 sequence (P38532 whole entry): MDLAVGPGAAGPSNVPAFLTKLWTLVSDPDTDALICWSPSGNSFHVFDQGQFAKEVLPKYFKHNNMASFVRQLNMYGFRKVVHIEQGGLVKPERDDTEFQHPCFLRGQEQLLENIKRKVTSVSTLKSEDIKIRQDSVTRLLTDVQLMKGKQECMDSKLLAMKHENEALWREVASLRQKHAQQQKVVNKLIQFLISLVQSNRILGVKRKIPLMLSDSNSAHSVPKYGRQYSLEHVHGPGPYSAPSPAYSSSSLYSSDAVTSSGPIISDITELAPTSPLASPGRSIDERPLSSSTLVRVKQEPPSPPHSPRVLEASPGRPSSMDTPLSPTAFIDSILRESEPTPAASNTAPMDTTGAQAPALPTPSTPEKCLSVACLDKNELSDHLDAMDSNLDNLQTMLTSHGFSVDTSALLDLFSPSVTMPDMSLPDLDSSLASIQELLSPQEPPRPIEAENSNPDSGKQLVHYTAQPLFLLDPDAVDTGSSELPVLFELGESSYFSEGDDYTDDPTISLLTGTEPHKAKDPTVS

[7] = target: Estrogen receptor beta (Homo sapiens, UniProt Q92731); assay: ERβ–SRC-3 coactivator interaction inhibitors, confirmation, orthogonal assay, biochemical, ELISA, streptavidin-HRP readout (AID 1060)
[8] = target: Induced myeloid leukemia cell differentiation protein Mcl-1 (Homo sapiens, UniProt Q07820); type: functional
Sequence of Induced myeloid leukemia cell differentiation protein Mcl-1 (Q07820 whole entry): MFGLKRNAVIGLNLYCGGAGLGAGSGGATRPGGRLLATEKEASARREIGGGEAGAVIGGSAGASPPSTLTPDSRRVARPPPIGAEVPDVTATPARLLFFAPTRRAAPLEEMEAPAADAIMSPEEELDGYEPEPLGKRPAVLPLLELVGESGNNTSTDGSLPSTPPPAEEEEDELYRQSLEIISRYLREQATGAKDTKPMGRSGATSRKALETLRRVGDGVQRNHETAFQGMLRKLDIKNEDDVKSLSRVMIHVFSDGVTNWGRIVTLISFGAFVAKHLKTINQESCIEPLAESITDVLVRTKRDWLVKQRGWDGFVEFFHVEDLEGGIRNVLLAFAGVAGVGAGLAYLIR

[9] = enhancers of respiration in Yfh1-depleted yeast, dose response, Friedreich's ataxia, plus single-dose screen (AID 1465); type: functional;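 note: yeast depleted of Yfh1p frataxin homolog grown on glycerol needing respiration; WST-1 tetrazolium dye reduction as measure of cellular dehydrogenase metabolic activity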
[10] = target: T2, Rac GTPase-activating protein 1 (Homo sapiens, UniProt Q9H0H5); assay: MgcRacGAP GTPase-activating activity inhibitors, confirmation, biochemical, ADP Hunter fluorescence, primary and confirmatory (AID 624330); type: functional
T2 sequence (Q9H0H5 whole entry): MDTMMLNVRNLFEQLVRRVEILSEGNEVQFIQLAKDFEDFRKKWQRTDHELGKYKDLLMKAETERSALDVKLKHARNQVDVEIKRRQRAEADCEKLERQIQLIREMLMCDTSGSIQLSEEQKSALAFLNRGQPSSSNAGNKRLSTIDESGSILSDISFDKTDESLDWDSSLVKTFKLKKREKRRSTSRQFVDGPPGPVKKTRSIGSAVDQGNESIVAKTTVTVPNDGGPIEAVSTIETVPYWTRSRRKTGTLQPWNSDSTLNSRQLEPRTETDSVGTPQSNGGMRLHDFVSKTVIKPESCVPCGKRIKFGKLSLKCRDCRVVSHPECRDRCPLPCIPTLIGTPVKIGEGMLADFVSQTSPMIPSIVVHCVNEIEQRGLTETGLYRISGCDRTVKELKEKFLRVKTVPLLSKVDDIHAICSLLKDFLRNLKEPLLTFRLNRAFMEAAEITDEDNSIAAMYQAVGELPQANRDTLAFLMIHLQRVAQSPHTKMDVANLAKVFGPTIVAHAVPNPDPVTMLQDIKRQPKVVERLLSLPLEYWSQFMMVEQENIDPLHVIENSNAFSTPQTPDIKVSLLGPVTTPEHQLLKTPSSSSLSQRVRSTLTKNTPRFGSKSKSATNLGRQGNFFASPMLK

| EC50 [3] | EC50 [4] | EC50 [5] | EC50 [6] | IC50 [7] | IC50 [8] | IC50 [10] | SMILES | IC50 [1] | IC50 [2] | EC50 [9] |
| --- | --- | --- | --- | --- | --- | --- | --- | --- | --- | --- |
| – | – | – | – | – | – | – | Cc1ccc(N2C(=O)CS/C2=C(\C(Cl)=C(Cl)Cl)[N+](=O)[O-])cc1 | > 79 µM (inactive) | 27.7 µM (active) | – |
| 29.1 µM (inactive) | > 79.4 µM (not active) | > 8.82 µM (not active) | > 260 µM (inactive) | 0.0578 µM (not active) | – | – | COC(=O)c1ccc(CSc2ncnc3c2oc2ccccc23)o1 | – | 14.7 µM (active) | – |
| – | – | – | – | – | 9.66 µM (active) | 16.6 µM (active) | CC1=NN(C(N)=S)C(=O)C1N=Nc1ccc(O)cc1 (stereo unspecified) | – | – | > 100 µM (active) |
